Reference: US5563158A, “Aromatic compounds containing basic and acidic termini useful as fibrinogen receptor antagonists” (The Dupont Merck Pharmaceutical Company, priority 1994, dated 1996)
Counter-ions that a name gives are not always drawn.

Test system: platelet-rich plasma (PRP) platelets
Test: Platelet aggregation assay (agonist-induced aggregation in human platelet-rich plasma, aggregometer)
Assay type: cell-based
Details: inhibition of agonist-induced platelet aggregation, test compounds added prior to activation of the platelets
Procedure: Platelet Aggregation Assay:
Venous blood was obtained from the arm of a healthy human donor who was drug-free and aspirin-free for at least two weeks prior to blood collection. Blood was collected into 10 mL citrated Vacutainer tubes. The blood was centrifuged for 15 minutes at 150×g at room temperature, and platelet-rich plasma (PRP) was removed. The remaining blood was centrifuged for 15 minutes at 1500×g at room temperature, and platelet-poor plasma (PPP) was removed. Samples were assayed on a aggregometer (PAP-4 Platelet Aggregation Profiler), using PPP as the blank (100% transmittance). 200 μL of PRP was added to each micro test tube, and transmittance was set to 0%. 20 μL of various agonists (ADP, collagen, arachidonate, epinephrine, thrombin) were added to each tube, and the aggregation profiles were plotted (% transmittance versus time). The results are expressed as % inhibition of agonist-induced platelet aggregation. For the IC50 evaluation, the test compounds were added at various concentrations prior to the activation of the platelets.

Structure (SMILES) | IC50
N=C(N)c1ccc(COc2cccc(C(=O)NC(CC(=O)O)C(F)(F)F)c2)cc1 (racemic) [Example 92, N-(3-(4-amidinobenzyloxy)benzoyl)-DL-3-amino-4,4,4-trifluorobutyric acid TFA salt] | 51 to 100 µM
CCCCOC(=O)N[C@@H](CNC(=O)c1cccc(COc2ccc(C(=N)N)cc2)c1)C(=O)OC [Example 3a, Methyl N-^2-1-butyloxycarbonyl-N^3-(3-(4-amidinophenyloxymethyl)benzoyl)-L-2,3-diaminopropionate TFA salt] | < 10 µM
COC(=O)[C@H](CNC(=O)c1cccc(COc2ccc(C(=N)N)cc2)c1)NS(=O)(=O)c1ccc(C)cc1 [Example 16a, Methyl N^2-p-toluenesulfonyl-N^3-(3-(4-amidinophenyloxymethyl)benzoyl)-L-2,3-diaminopropionate TFA salt] | 10 to 50 µM
COC(=O)[C@H](CNC(=O)c1cccc(COc2ccc(C(=N)N)cc2)c1)NC(=O)Cc1cccnc1 [Example 119a, Methyl-N^2-3-pyridylacetoyl-N^3-[3-(4-amidinophenyloxymethyl)benzoyl]-L-2,3-diaminopropionate] | < 10 µM
CCOC(=O)C(CNC(=O)c1cccc(COc2ccc(C(=N)N)cc2)c1)NC(=O)OCc1ccccc1 (stereo not shown) [Example 110] | 10 to 50 µM
O=C(O)CCNC(=O)c1cccc(OCCCC2CCNCC2)c1 [Example 84a] | < 10 µM
N=C(N)c1ccc(OCc2cccc(C(=O)NC[C@H](NC(=O)OCc3ccccc3)C(=O)O)c2)cc1 [Example 53, N^2 -Cbz-N^3-(3-(4-amidinophenyloxymethyl)benzoyl)-L-2,3-diaminopropionic acid TFA salt] | < 10 µM
COC(=O)[C@H](CNC(=O)c1cccc(COc2ccc(C(=N)N)cc2)c1)NC(=O)Cc1ccncc1 [Example 501a] | < 10 µM
O=C(O)CC1CCCCN1C(=O)c1ccc(OCCC2CCNCC2)cc1 (stereo not shown) [Example 482] | 51 to 100 µM
CC(CC(=O)O)NC(=O)c1cccc(OCc2ccc(C(=N)N)cc2)c1 (racemic) [Example 91, N-(3-(4-amidinobenzyloxy)benzoyl)-DL-3-aminobutyric acid TFA salt] | < 10 µM
Cc1ccc(S(=O)(=O)N[C@@H](CNC(=O)c2cccc(COc3ccc(C(=N)N)cc3)c2)C(=O)O)cc1 [Example 16, N^2-p-toluenesulfonyl-N^3-(3-(4-amidinophenyloxymethyl)benzoyl)-L-2,3-diaminopropionic acid TFA salt] | < 10 µM
CCCCOC(=O)N[C@@H](CNC(=O)c1cc(OCc2ccc(C(=N)N)cc2)no1)C(=O)O [Example 123, N^2-n-butyloxycarbonyl-N^3-[3-(4-amidinobenzyloxy)-5-isoxazolecarbonyl]-L-2,3-diaminopropionate TFA salt] | < 10 µM
CCCCOC(=O)N[C@@H](CNC(=O)c1cc(OCc2ccc(C(=N)N)cc2)no1)C(=O)OC [Example 142, Methyl N^2-n-butyloxycarbonyl-N^3-[3-(4-amidinobenzyloxy)-5 isoxazolecarbonyl]-L-2,3-diaminopropionate TFA salt] | < 10 µM
COC(=O)[C@H](CNC(=O)c1cccc(COc2ccc(C(=N)N)cc2)c1)NC(=O)c1ccccn1 [Example 18a] | < 10 µM
COC(=O)[C@H](CNC(=O)c1cccc(COc2ccc(C(=N)N)cc2)c1)NC(=O)CCc1ccccc1 [Example 6a, Methyl N^2-(3-phenylpropionyl)-N^3-(3-(4-amidinophenyloxymethyl)benzoyl)-L-2,3-diaminopropionate TFA salt] | < 10 µM
O=C(O)CC1CCCCN1C(=O)c1ccc(OCCCC2CCNCC2)cc1 (stereo not shown) [Example 480] | 10 to 50 µM
CCCCOC(=O)N[C@@H](CNC(=O)c1cc(OCC2CCN(C(=N)N)CC2)no1)C(=O)OC [Example 479, Methyl N^2-n-butyloxycarbonyl-N-[3-(N-amidino-4-piperidinylmethoxy)-5-isoxazolecarbonyl]-L-2,3-diaminopropionate TFA salt] | < 10 µM
COC(=O)[C@H](CNC(=O)c1cccc(COc2ccc(C(=N)N)cc2)c1)NC(=O)c1ccncc1 [Example 20a] | < 10 µM
COC(=O)[C@H](CNC(=O)c1cccc(COc2ccc(C(=N)N)cc2)c1)NC(=O)c1cccnc1 [Example 19a, Methyl-N^2-nicotinoyl-N^3-[3-(4-amidinophenyloxymethyl)benzoyl]-L-2,3-diaminopropionate, TFA salt] | < 10 µM
CC(CC(=O)O)NC(=O)c1cccc(COc2ccc(C(=N)N)cc2)c1 (racemic) [Example 85, N-(3-(4-Amidinophenyloxymethyl)benzoyl)-DL-3-aminobutyric acid TFA salt] | < 10 µM
COC(=O)[C@H](CNC(=O)c1cccc(COc2ccc(C(=N)N)cc2)c1)NC(=O)Cc1ccccn1 [Example 500a] | < 10 µM
CCCCS(=O)(=O)N[C@@H](CNC(=O)c1cccc(COc2ccc(C(=N)N)cc2)c1)C(=O)O [Example 14, N^2-1-butanesulfonyl-N^3-(3-(4-amidinophenyloxymethyl)benzoyl)-2,3-diaminopropionic acid TFA salt] | < 10 µM
N=C(N)c1ccc(OCc2cccc(C(=O)NCCC(=O)O)c2)cc1 [Example 27, N-(3-(4-amidinophenyloxymethyl)benzoyl)-3-aminopropionic acid TFA salt] | < 10 µM
O=C(O)CC1CCCCCN1C(=O)c1ccc(OCCCC2CCNCC2)cc1 (stereo not shown) [Example 481] | 10 to 50 µM
O=C(O)CCNC(=O)c1ccc(OCCCC2CCNCC2)cc1 [Example 84b, TFA salt] | < 10 µM
